According to patent publication US9708336B2, “Metallo-beta-lactamase inhibitors” (priority 2014, dated 2017):
Read-outs that look alike come from different tables or passages of the source.

Assays:
[1] = system: Escherichia coli expressing NDM-1 (CLB30016); assay: Antibiotic potentiation activity: synergistic concentration (MITC95) with imipenem, OD600 growth; assay type: cell-based; settings: for Escherichia coli expressing NDM-1 (CLB 30016) MITC95: concentration giving 95% inhibition of bacterial growth
Outline: (§1)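 Steps: colonies grown overnight at 35 °C; resuspended in saline to OD600 0.11–0.15 by strain; diluted 1:100 into 1.1× CAMHB; imipenem then compound added (antibiotic 4 μg/ml in assay); incubated 35 °C for 22–24 h; absorbance measured.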

[2] = system: Serratia marcescens expressing IMP-1 (CL5741); assay: as above; assay type: cell-based; settings: for Serratia marcescens expressing IMP-1 (CL5741) MITC95: concentration giving 95% inhibition of bacterial growth
Outline: as §1

[3] = system: Klebsiella pneumoniae expressing VIM-1 (IHMA599644); assay: as above; assay type: cell-based; settings: for Klebsiella pneumoniae expressing VIM-1 (IHMA 599644) MITC95: concentration giving 95% inhibition of bacterial growth
Outline: as §1

[4] = molecular target: VIM-1 (Pseudomonas aeruginosa (strain ATCC 15692 / DSM 22644 / CIP 104116 / JCM 14847 / LMG 12228 / 1C / PRS 101 / PAO1), UniProt A0A0F7KYQ8); assay: Enzyme activity: determination of IC50, fluorescence assay with CCF2-FA substrate (VIM-1); assay type: biochemical
[5] = molecular target: IMP-1 (Serratia marcescens, UniProt P52699); assay: biochemical; assay type: biochemical; settings: read-out: IMP-1 IC50
Sequence of IMP-1 (P52699 whole entry, looked up): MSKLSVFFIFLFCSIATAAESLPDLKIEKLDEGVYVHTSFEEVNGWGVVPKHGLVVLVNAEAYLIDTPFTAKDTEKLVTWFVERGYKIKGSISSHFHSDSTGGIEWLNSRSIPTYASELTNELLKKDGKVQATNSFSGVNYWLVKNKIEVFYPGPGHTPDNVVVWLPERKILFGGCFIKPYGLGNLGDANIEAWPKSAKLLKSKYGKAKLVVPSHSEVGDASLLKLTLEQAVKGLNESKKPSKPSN

[6] = molecular target: NDM-1 (Klebsiella pneumoniae, UniProt C7C422); assay: biochemical; assay type: biochemical
Sequence of NDM-1 (C7C422 whole entry, looked up, species assumed): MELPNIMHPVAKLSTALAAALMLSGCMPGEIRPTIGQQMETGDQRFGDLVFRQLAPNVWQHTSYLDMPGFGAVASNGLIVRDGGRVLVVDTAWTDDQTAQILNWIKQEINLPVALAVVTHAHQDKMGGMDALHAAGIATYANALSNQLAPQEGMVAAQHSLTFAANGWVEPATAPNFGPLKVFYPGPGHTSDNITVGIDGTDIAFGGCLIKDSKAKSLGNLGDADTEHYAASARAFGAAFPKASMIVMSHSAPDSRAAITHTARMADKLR

[7] = (CLB30016, NDM-1), 95% growth inhibition
[8] = Serratia marcescens CL5741 (IMP-1), 95% growth inhibition
[9] = Klebsiella pneumoniae IHMA599644 (VIM-1), 95% growth inhibition
[10] = VIM-1 IC50, VIM-1 enzyme, CCF2-FA substrate
[11] = IMP-1 enzyme, CCF2-FA substrate
[12] = NDM-1 enzyme, CCF2-FA substrate, read-out: NDM-1 IC50
[13] = Escherichia coli expressing NDM-1 (CLB30016), 95% growth inhibition
[14] = Serratia marcescens expressing IMP-1 (CL5741), 95% growth inhibition
[15] = Klebsiella pneumoniae expressing VIM-1 (IHMA599644), 95% growth inhibition
[16] = VIM-1 enzyme, CCF2-FA fluorescence assay, read-out: VIM-1 IC50
[17] = IMP-1 enzyme, CCF2-FA fluorescence assay
[18] = NDM-1 enzyme, CCF2-FA fluorescence assay, read-out: NDM-1 IC50
[19] = VIM-1 enzyme, CCF2-FA substrate, read-out: VIM-1 IC50
[20] = CLB30016 (NDM-1), 95% inhibition of bacterial growth
[21] = CL5741 (IMP-1), 95% inhibition of bacterial growth
[22] = IHMA599644 (VIM-1), 95% inhibition of bacterial growth
[23] = VIM-1 IC50, fluorescence assay with CCF2-FA substrate
[24] = fluorescence assay with CCF2-FA substrate
[25] = fluorescence assay with CCF2-FA substrate, read-out: NDM-1 IC50
[26] = fluorescence assay with CCF2-FA substrate, read-out: VIM-1 IC50

Row | SMILES | Escherichia coli MITC95 [1, 7] | Serratia marcescens MITC95 [2, 8] | Klebsiella pneumoniae MITC95 [3, 9] | IC50 [5, 11] | IC50 [6, 12] | Escherichia coli MITC95 [1, 13] | Serratia marcescens MITC95 [2, 14] | Klebsiella pneumoniae MITC95 [3, 15] | IC50 [5, 17] | IC50 [6, 18] | also measured
1 | NS(=O)(=O)c1c(C(F)(F)F)ccc([C@H]2CC[C@H](NC3CC4CNCCN4C3)CC2)c1-c1nnn[nH]1 (stereo partly drawn) [Example 686, 3-[4-(octahydropyrrolo[1,2-a]pyrazin-7-ylamino)cyclohexyl]-2-(1H-tetrazol-5-yl)-6-(trifluoromethyl)benzene sulfonamide] | 1.563 µM | 6.25 µM | 12.5 µM | 31.7 nM | 9.53 nM | – | – | – | – | – | IC50 [4, 10]: 15.7 nM
2 | NCC[C@H]1CC[C@H](c2ccc(C(F)(F)F)c(S(N)(=O)=O)c2-c2nnn[nH]2)CC1 [Example 499, 3-(trans 4-(2-aminoethyl)cyclohexyl)-2-(1H-tetrazol-5-yl)-6-(trifluoromethyl)benzenesulfonamide] | 0.7813 µM | 0.1953 µM | 1.172 µM | 7.04 nM | 1.93 nM | – | – | – | – | – | IC50 [4, 10]: 0.328 nM
3 | Cc1ccc(-c2ccc(Br)c(S(N)(=O)=O)c2-c2nn[nH]n2)cc1 [Example 267, 4-bromo-4′-methyl-2-(2H-tetrazol-5-yl)-[1,1′-biphenyl]-3-sulfonamide] | – | – | – | – | – | 0.7383 µM | 0.2552 µM | 6.25 µM | 2 nM | 1.81 nM | IC50 [4, 16]: 2.95 nM
4 | NS(=O)(=O)c1c(C(F)(F)F)ccc(-c2ccc(OC3CNC3)cc2)c1-c1nnn[nH]1 [Example 719, 4′-(azetidin-3-yloxy)-2-(1H-tetrazol-5-yl)-4-(trifluoromethyl)biphenyl-3-sulfonamide] | 3.125 µM | 3.125 µM | 3.125 µM | 3.68 nM | 3.04 nM | – | – | – | – | – | IC50 [4, 10]: 0.553 nM
5 | C[N+](C)(C)CCN1CCC(c2ccc(-c3ccc(C(F)(F)F)c(S(N)(=O)=O)c3-c3nnn[nH]3)cc2)CC1 [Example 677, N,N,N-trimethyl-2-{4-[3′-sulfamoyl-2′-(1H-tetrazol-5-yl)-4′-(trifluoromethyl)biphenyl-4-yl]piperidin-1-yl}ethanaminium] | 12.5 µM | 12.5 µM | >200 µM | 0.541 nM | 4.17 nM | – | – | – | – | – | IC50 [4, 19]: 19.4 nM
6 | NS(=O)(=O)c1c(C(F)(F)F)ccc(-c2ccc(C3CCNCC3)nc2)c1-c1nnn[nH]1 [Example 744, 3-(6-piperidin-4-ylpyridin-3-yl)-2-(1H-tetrazol-5-yl)-6-(trifluoromethyl)benzenesulfon-amide] | – | – | – | – | – | – | – | – | – | – | Escherichia coli MITC95 [1, 20]: 6.25 µM; Serratia marcescens MITC95 [2, 21]: 12.5 µM; Klebsiella pneumoniae MITC95 [3, 22]: 12.5 µM; IC50 [4, 23]: 0.907 nM; IC50 [5, 24]: 18.1 nM; IC50 [6, 25]: 16.3 nM
7 | NS(=O)(=O)c1c(C(F)(F)F)ccc(-c2ccc(C3CCN(C[C@H]4CNCCO4)CC3)cc2)c1-c1nnn[nH]1 [Example 670, 4′-{1-[(2R)-morpholin-2-ylmethyl]piperidin-4-yl}-2-(1H-tetrazol-5-yl)-4-(trifluoromethyl)biphenyl-3-sulfonamide] | 1.563 µM | 3.125 µM | 25 µM | 1.08 nM | 4.11 nM | – | – | – | – | – | IC50 [4, 19]: 3.53 nM
8 | Cn1cncc1C[C@@H](NCc1ccc(-c2cccc(S(N)(=O)=O)c2-c2nnn[nH]2)cc1)C(=O)O [Example 363, 3-methyl-N-{[3′-sulfamoyl-2′-(1H-tetrazol-5-yl)biphenyl-4-yl]methyl}-D-histidine] | – | – | – | – | – | 3.125 µM | 6.25 µM | 100 µM | 233 nM | 21.4 nM | IC50 [4, 16]: 495 nM
9 | N=C(N)NC[C@H]1CC[C@@H](c2ccc(C(F)(F)F)c(S(N)(=O)=O)c2-c2nnn[nH]2)CC1 [Example 502, 3-(cis 4-(guanidinomethyl)cyclohexyl)-2-(1H-tetrazol-5-yl)-6-(trifluoromethyl)benzenesulfonamide] | 1.563 µM | 1.563 µM | 9.375 µM | 1.19 nM | – | – | – | – | – | – | IC50 [4, 19]: 1.44 nM; IC50 [6]: 0.52 nM
10 | NS(=O)(=O)c1nccc(NC2CCCCC2)c1-c1nnn[nH]1 [Example 234, 4-(cyclohexylamino)-3-(1H-tetrazol-5-yl)pyridine-2-sulfonamide] | – | – | – | – | – | – | – | – | – | – | Escherichia coli expressing NDM-1 (CLB 30016) MITC95 [1]: 4.688 µM; Serratia marcescens expressing IMP-1 (CL5741) MITC95 [2]: 100 µM; Klebsiella pneumoniae expressing VIM-1 (IHMA 599644) MITC95 [3]: >200 µM; IC50 [4, 26]: 1170 nM; IC50 [5, 24]: 1450 nM; IC50 [6, 25]: 24.5 nM
11 | NS(=O)(=O)c1cccc(-c2snc3cccnc23)c1-c1nnn[nH]1 [Example 414, 3-isothiazolo[4,3-b]pyridin-3-yl-2-(1H-tetrazol-5-yl)benzenesulfonamide] | – | – | – | – | – | 2.344 µM | 4.688 µM | 18.75 µM | 177 nM | 6.01 nM | IC50 [4, 16]: 19.9 nM
12 | NS(=O)(=O)c1cccc(-c2cccc3c2OCC3=O)c1-c1nn[nH]n1 [Example 521, 3-(3-Oxo-2,3-dihydrobenzofuran-7-yl)-2-(2H-tetrazol-5-yl)benzenesulfonamide] | 1.563 µM | 12.5 µM | 12.5 µM | 559 nM | 3.44 nM | – | – | – | – | – | IC50 [4, 19]: 19.7 nM
13 | NS(=O)(=O)c1cccc(-c2ccc(CNC3CCNC3=O)cc2)c1-c1nnn[nH]1 (stereo not drawn) [Example 388, 4′-{[(2-oxopyrrolidin-3-yl)amino]methyl}-2-(1H-tetrazol-5-yl)biphenyl-3-sulfonamide] | – | – | – | – | – | 1.563 µM | 1.563 µM | 200 µM | 48.6 nM | 4.28 nM | IC50 ([4]; VIM-1 IC50, VIM-1 enzyme, CCF2-FA fluorescence assay): 273 nM
14 | CN(c1ccnc(S(N)(=O)=O)c1-c1nnn[nH]1)C1CCCCC1 [Example 232, 4-[cyclohexyl(methyl)amino]-3-(1H-tetrazol-5-yl)pyridine-2-sulfonamide] | – | – | – | – | – | – | – | – | – | – | Escherichia coli expressing NDM-1 (CLB 30016) MITC95 [1]: 50 µM; Serratia marcescens expressing IMP-1 (CL5741) MITC95 [2]: >200 µM; Klebsiella pneumoniae expressing VIM-1 (IHMA 599644) MITC95 [3]: 150 µM; IC50 [4, 23]: 166 nM; IC50 [5, 24]: 7640 nM; IC50 [6, 25]: 892 nM
15 | Nc1nc2cccc(-c3ccc(C(F)(F)F)c(S(N)(=O)=O)c3-c3nnn[nH]3)c2[nH]1 [Example 551, 3-(2-amino-3H-benzimidazol-4-yl)-2-(1H-tetrazol-5-yl)-6-(trifluoromethyl)benzenesulfonamide] | 0.3906 µM | 0.7813 µM | 1.563 µM | 3.8 nM | 0.142 nM | – | – | – | – | – | IC50 [4, 19]: 0.26 nM
16 | NS(=O)(=O)c1cccc(-c2ccc(CN3C[C@H](O)C[C@H]3CO)cc2)c1-c1nnn[nH]1 [Example 387, 4′-{[(2S,4R)-4-hydroxy-2-(hydroxymethyl)pyrrolidin-1-yl]methyl}-2-(1H-tetrazol-5-yl)biphenyl-3-sulfonamide] | – | – | – | – | – | 2.344 µM | 3.125 µM | 100 µM | 145 nM | 10.6 nM | IC50 [4, 16]: 445 nM
17 | NC1CCC(N2CCC(c3ccc(-c4ccc(C(F)(F)F)c(S(N)(=O)=O)c4-c4nnn[nH]4)cc3)CC2)C1 (stereo not drawn) [Example 786, 4′-[1-(3-aminocyclopentyl)piperidin-4-yl]-2-(1H-tetrazol-5-y)-4-(trifluoromethyl)biphenyl-3-sulfonamide] | – | – | – | – | – | – | – | – | – | – | Escherichia coli MITC95 [1, 20]: 1.563 µM; Serratia marcescens MITC95 [2, 21]: 3.125 µM; Klebsiella pneumoniae MITC95 [3, 22]: 50 µM; IC50 [4, 26]: 12 nM; IC50 [5, 24]: 2.08 nM; IC50 [6, 25]: 6.2 nM
18 | N=CN1CCC(N)(c2ccc(-c3ccc(C(F)(F)F)c(S(N)(=O)=O)c3-c3nn[nH]n3)cc2)CC1 [Example 437, 4′-(4-amino-1-(iminomethyl)piperidin-4-yl)-2-(2H-tetrazol-5-yl)-4-(trifluoromethyl)-[1,1′-biphenyl]-3-sulfonamide] | – | – | – | – | – | 0.3906 µM | 0.3906 µM | 3.125 µM | 7.82 nM | 7.95 nM | IC50 [4, 16]: 8 nM
